Source: article PMC9951290, “Comprehensive Structure–Activity Relationship Studies of Cepafungin Enabled by Biocatalytic C–H Oxidations” (ACS Central Science, 2023)

What was measured:
RPMI 8226 cells = assay: Cytotoxicity measurement (WST-1), RPMI 8226; format: cell-based, human; conditions: Homo sapiens; RPMI 8226, 48 hours, WST-1, n = 3; read-out: Cytotoxicity EC50 (cell viability)
Description: Cellular assays were performed on human multiple myeloma RPMI 8226 cells (Figure 4). First, relative inhibition of proteasome subunits β5 and β2 for all analogues and the natural product was measured at 30 nM compound concentration. Following incubation of the compounds in cell culture for 6 h, cells were lysed, and fluorogenic subunit-specific peptide substrates Suc-LLVY-AMC (β5) or Ac-RLR-AMC (β2) were incubated with the lysates; fluorescence readings provided relative proteasome activity levels in comparison with DMSO (Figure 4A). Next, cytotoxicity screening was performed at 30 and 100 nM concentrations for sufficient coverage of dynamic range (Figure 4B). […] Therefore, the improved cytotoxicity of phenyl cepafungin 50 likely results from a more pronounced loss of β5 function in RPMI 8226 cells. This drastic increase in proteasome inhibition may be due to π-stacking of the lipid tail phenyl ring with the β6 subunit residues Tyr106 and/or Tyr5. The β2 subunit-bound natural product has residues Tyr102 and Phe103 on the adjacent β3 subunit oriented further away from the terminal lipid methyl groups, and presumably would not facilitate π-stacking to the extent possible at the adjacent β6 subunit (see Figure 3 and Figure S4). […] These combined modifications were made in hopes that the effects of both substitutions would be additive. […] The presence of a Thr residue next to the cepafungin macrocycle appears to be favored over the ethyl side chain of desoxy-Thr analogue 44 as indicated by cytotoxicity and hydrogen-bonding seen in the cepafungin-bound crystal structure (Figures 3 and 4B).
AMC (β5) or Ac-RLR-AMC (β2). […]
Cytotoxicity Measurements
in DMSO) or DMSO and cultured for 48 hours. Toxicity was determined using the WST-1 assay
(Roche) according to the protocol of the manufacturer. (n = 3)
Figure S1. […]

20S proteasome subunits = assay: Competitive in situ LC-MS/MS pull-down with alkyne probe S10 and 1 (Figure S1, Table S3); format: cell-based, human; conditions: 100 nM 1 versus 10 μM S10, RPMI 8226; targets: 20S proteasome subunits β5, β2i, α5, β1, β2
Description: To determine the targets of cepafungin I in human MM cells through chemoproteomics, a clickable analogue (S10) was designed with alkyne functionality distal to the reactive macrocycle (i.e., at the end of the fatty acid chain). The synthesis of S10 proceeded in a similar fashion as in Scheme 2B except with the tail fragment built from initial alkyne substitution of 6-bromo-1-hexanol. […] To identify these targets, a competitive in situ LC-MS/MS-based pull-down experiment was performed using alkyne probe S10 and 1. Following live cell treatment with just the probe or the probe together with the natural product, alkyne conjugation to biotin-azide and pull-down with streptavidin beads, the probe analogue enriched 764 proteins from RPMI 8226. […] These targets were identified as the 20S proteasome subunits β5, β2i, α5, β1, and β2, highlighting cepafungin’s exceptional selectivity for the proteasome in MM cells (Figure S1 and Table S3). […] The “i” suffix here denotes subunits of the immunoproteasome, which is produced by most cells exposed to oxidative stress or proinflammatory cytokines and also by immune cells at especially high baseline levels.[37] […]
fluorescence was read at A360ex/A460em. […]
in DMSO) or DMSO and cultured for 48 hours. Toxicity was determined using the WST-1 assay (Roche) according to the protocol of the manufacturer. […]

[1] = test system: proteasome subunits β2/2i, β5/5i, β1i, β1; conditions: in-gel labeling, cited from earlier work

SMILES: CC(C)CCCCCC=CC=CC(=O)NC(C(=O)NC1CC(O)CCNC(=O)C=CC(C)NC1=O)C(C)O (stereo not shown) [compound 1, cepafungin I]
- EC50 (RPMI 8226 cells): 14 nM
- number of enriched proteins competed >50% (20S proteasome subunits): 5 proteins
- engagement of β1 ([1]; RPMI 8226, even at high concentrations): very little engagement
- competition for subunits β2/2i, β5/5i and β1i ([1]; RPMI 8226): low-nanomolar concentrations
